In patent US10828305B2 (SHANGHAI PHARMACEUTICALS HOLDING CO., LTD., priority 2016, dated 2020) one finds IC50 data, which are given here for 17 compounds.

A word on the IC50: it is the concentration that gives 50% inhibition.

The target of one assay is ErbB2 kinase (Homo sapiens, UniProt P04626). The assay can be described thus: Enzymatic experiment on ErbB2 (HTRF kinEASE-TK). Format: biochemical. The note with it: ATP 4 μM; read-out: Kinase IC50 (nM) in vitro ErbB2. The protocol:
(§1) Enzymatic Experiment on EGFR/ErbB2
(§2) Firstly, preparing 1× reaction buffer required for the kinase, 5× Enzymatic buffer (HEPES 20 mM pH7.0, NaN3 0.1%, BSA 0.05%, sodium orthovanadate 0.5 mM) in the HTRF kinEASE-TK kit was diluted to 1 time with deionized water, 50 nM Supplement Enzymatic buffer (SEB reagent), 1 mM MnCl2, 5 mM MgCl2 and 1 mM DTT were added. Secondly, preparing 5× compound, 10 mM test compound stock solution was diluted in multiple steps with DMSO in a 96-well compound plate to prepare 100× compound as initial concentration, which was then used as the first concentration to perform a 3-fold gradient dilution with DMSO to obtain 10 concentrations. Afterwards, 1 μl gradient dilution was added to 19 μl 1× reaction buffer to prepare 5× compound for use. Then 2 μl 5× compound was transferred from the 96 well plate into a 384-well plate. To the compound-free control wells was added with 2 μl the following liquid: 19 μl 1× reaction buffer with addition of 1 μl DMSO. To the blank control wells was added 2 μl 250 mM EDTA. The third step was enzymatic reaction, the kinase, substrate (TK Substrate-biotin) and ATP were formulated into 2.5× enzyme/substrate mixture and 2.5×ATP solution using 1× reaction buffer respectively. The final concentration of ErbB2 kinase was 0.06 ng/μl, the final concentration of ATP was 4 μM; the final concentration of EGFR kinase was 0.06 units/μl, the final concentration of ATP was 1.65 μM; 4 μl 2.5× enzyme/substrate mixture was added to a 384-well plate, which was incubated at room temperature for 5 minutes; 4 μl 2.5×ATP solution was added to each well and the mixture was allowed to react for 30 minutes at room temperature. The fourth step was termination of the reaction, HTRF Detection buffer was used to prepare a mixture of 2×TK Antibody-Eu(K) and Sa-XL665, the amount of TK Antibody-Eu(K) was 5 μl per well. After the enzymatic reaction was performed for 30 minutes, 10 μl of the above liquid was added to the 384-well plate and the mixture was allowed to react at room temperature for 1 hour. The data was measured on EnVision™, the laser of 337 nm wavelength was selected as the excitation light, RFU665 nM and RFU620 nM were measured, and […]/RFU620 nM×10000 was used as the final data for analysis.
For orientation: TR-FRET usually uses a lanthanide donor and a delayed reading to cut background.

A further assay addresses EGFR kinase (Homo sapiens, UniProt P00533). Nature of the assay: Enzymatic experiment on EGFR (HTRF kinEASE-TK). The note with it: ATP 1.65 μM; read-out: Kinase IC50 (nM) in vitro EGFR. The class given is biochemical. As to the method:
as §1, §2

The subject of another assay is N87. The assay can be described thus: Proliferation inhibition assay in vitro, N87 (CellTiter-Glo). The class given is cell-based. The note with it: Homo sapiens; 72 hours; read-out: IC50(nM) cell N87. As to the method: (§3) Proliferation Inhibition Assay In Vitro of Cell Lines
(§4) 1. Cell culture and inoculation: on the first day of the experiment, normal cultured cells were taken in the exponential growth phase, the cells were dispersed by digesting, then the cell density was adjusted to 8.8×10^4 cells/mL for BT-474 and 6.6×10^4 cells/mL for N87, 90 μl of which were inoculated to each well in a 96-well cell culture plate; after inoculation, the microplate was placed at condition of 37° C., 5% CO2 overnight. 2. Dosing to cells: on the second day of the experiment, the microplate was taken out from incubator, […], of 10× compound was separately added to each well of the microplate, 2 duplicated wells were set for each concentration, 9 dosing concentrations were set for each compound. According to different cell lines, the initial concentration of each compound was different. Upon completion of addition, the microplate was placed at condition of 37° C., 5% CO2 for 72 hours. 3. Data acquisition: the microplate was taken out from the incubator and allowed to stand at room temperature to equilibrate for 30 minutes. 100 μl CellTiter-Glo® Luminescent Cell Viability Assay reaction solution which had been equilibrated at room temperature was added to each well and the microplate was shaken at 1300 rpm for 2 minutes at room temperature. The microplate was centrifuged at 2000 rpm for 1 minute in a HERAEUS Multifuge X1R and then allowed to equilibrate at room temperature for 10 minutes. The […] signal was measured on EnVision™.
For orientation: Cellular ATP, detected with luciferase, serves as a proxy for viable cell number.

A further assay has as its system BT-474. The assay can be described thus: Proliferation inhibition assay in vitro, BT-474 (CellTiter-Glo). The class given is cell-based. The following applies: Homo sapiens, 72 hours, read-out: IC50(nM) cell BT-474. The protocol:
as §3, §4

ErbB2 kinase, sequence (P04626 23-1255): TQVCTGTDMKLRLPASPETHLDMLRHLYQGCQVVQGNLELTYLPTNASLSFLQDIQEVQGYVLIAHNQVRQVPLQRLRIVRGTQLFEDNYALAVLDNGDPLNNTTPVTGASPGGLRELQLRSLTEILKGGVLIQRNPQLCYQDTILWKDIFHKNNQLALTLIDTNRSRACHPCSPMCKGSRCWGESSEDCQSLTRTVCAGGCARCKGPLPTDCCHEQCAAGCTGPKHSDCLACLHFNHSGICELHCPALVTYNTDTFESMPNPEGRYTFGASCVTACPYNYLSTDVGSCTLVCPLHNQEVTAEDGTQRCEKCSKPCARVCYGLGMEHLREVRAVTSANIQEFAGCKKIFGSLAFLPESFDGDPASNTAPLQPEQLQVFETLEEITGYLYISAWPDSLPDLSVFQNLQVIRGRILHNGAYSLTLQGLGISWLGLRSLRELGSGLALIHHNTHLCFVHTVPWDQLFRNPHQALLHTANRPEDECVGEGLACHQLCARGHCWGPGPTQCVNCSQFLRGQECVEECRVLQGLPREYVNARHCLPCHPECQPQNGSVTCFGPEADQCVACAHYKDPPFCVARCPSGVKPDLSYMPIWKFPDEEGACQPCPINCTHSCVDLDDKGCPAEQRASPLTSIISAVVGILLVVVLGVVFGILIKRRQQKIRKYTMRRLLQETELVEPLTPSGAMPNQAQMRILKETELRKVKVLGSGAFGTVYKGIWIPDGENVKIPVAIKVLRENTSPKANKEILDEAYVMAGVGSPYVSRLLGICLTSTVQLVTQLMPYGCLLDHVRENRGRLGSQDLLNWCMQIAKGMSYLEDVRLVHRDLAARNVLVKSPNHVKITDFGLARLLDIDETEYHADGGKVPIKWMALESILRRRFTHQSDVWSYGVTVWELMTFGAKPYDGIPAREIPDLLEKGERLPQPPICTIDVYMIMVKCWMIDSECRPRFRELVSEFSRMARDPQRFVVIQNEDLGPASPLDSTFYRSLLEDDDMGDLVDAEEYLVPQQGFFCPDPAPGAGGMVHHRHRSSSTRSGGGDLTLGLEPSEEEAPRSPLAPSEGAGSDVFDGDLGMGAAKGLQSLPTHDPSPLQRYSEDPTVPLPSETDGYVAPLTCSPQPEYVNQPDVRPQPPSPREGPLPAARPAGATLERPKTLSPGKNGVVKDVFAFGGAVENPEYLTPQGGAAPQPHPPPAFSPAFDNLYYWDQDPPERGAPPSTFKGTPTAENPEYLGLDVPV
EGFR kinase, sequence (P00533 25-1210): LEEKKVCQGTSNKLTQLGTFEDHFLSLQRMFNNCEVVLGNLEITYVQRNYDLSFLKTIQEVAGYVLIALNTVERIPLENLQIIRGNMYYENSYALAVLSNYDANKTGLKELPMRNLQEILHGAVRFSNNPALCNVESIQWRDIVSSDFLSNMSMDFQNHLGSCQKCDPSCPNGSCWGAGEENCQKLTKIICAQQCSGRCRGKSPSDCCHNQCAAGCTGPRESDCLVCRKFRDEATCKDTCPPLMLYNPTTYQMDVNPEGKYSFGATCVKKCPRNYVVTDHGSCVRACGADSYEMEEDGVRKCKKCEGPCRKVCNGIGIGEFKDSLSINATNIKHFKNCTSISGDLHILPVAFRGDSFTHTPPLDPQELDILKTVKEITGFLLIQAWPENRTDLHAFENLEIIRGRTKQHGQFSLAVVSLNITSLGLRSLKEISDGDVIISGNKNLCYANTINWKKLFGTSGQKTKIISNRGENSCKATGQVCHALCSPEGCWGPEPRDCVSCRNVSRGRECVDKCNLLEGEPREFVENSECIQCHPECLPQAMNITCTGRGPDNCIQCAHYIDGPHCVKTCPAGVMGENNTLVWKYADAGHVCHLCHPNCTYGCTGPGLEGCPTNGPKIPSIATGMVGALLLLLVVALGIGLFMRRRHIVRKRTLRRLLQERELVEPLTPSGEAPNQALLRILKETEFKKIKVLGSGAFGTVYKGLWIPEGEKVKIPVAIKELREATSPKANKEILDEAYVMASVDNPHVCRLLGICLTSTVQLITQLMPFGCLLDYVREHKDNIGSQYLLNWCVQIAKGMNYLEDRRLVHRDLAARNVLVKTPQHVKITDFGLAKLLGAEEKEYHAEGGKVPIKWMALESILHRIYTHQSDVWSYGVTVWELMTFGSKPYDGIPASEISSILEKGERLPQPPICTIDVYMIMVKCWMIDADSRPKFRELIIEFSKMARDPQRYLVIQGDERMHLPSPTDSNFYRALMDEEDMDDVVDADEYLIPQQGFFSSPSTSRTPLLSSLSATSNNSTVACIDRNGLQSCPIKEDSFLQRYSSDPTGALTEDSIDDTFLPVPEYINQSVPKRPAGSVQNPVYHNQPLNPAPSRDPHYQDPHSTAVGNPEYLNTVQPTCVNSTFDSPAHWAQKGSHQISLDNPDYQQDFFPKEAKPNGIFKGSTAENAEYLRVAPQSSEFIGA

In the case of `Cc1cc(Nc2ncnc3ccc(-c4cc(CN5CCS(=O)(=O)CC5)co4)cc23)ccc1Oc1cc2nncn2cn1` [Embodiment 64], the half-inhibitory concentration (IC50) on ErbB2 kinase worked out at 1.6 nM; on EGFR kinase it was 29 nM; in the assay with N87, 42.7 nM; with BT-474, 27.6 nM.
With `Cc1cc(Nc2ncnc3ccc(NC4=NC5(CO4)CN(C(=O)OC(C)(C)C)C5)cc23)ccc1Oc1cc2nncn2cn1` [Embodiment 26], the IC50 on ErbB2 kinase turned out to be 3.8 nM; at EGFR kinase, 96.8 nM; in the assay on N87 it was 130 nM; in the assay with BT-474, 122 nM.
The matching figures for `Cc1cc(Nc2ncnc3ccc(-c4ccco4)cc23)ccc1Oc1cc2nncn2cn1` [Embodiment 21, N-(4-([1,2,4]triazolo[4,3-c]pyrimidin-7-yloxy)-3-methylphenyl)-6-(furan-2-yl)-quinazolin-4-amine]: 2.2 nM, 43.5 nM, 73.8 nM and 140 nM.
As to `Cc1cc(Nc2ncnc3ccc(-c4ccc(CN(C)C)o4)cc23)ccc1Oc1cc2nncn2cn1` [Embodiment 59, N-(4-([1,2,4]triazolo[4,3-c]pyrimidin-7-yloxy)-3-methylphenyl)-6-(5-((dimethylamino)methyl)furan-2-yl)-4-aminoquinazoline], the IC50 at ErbB2 kinase was determined as 5.7 nM; at EGFR kinase it was 40.2 nM; with N87, 61.1 nM; in the assay on BT-474 it was 281 nM.
The matching figures for `Cc1cc(Nc2ncnc3ccc(NC(=O)/C=C/[C@H]4CCCN4C)cc23)ccc1Oc1cc2nncn2cn1` [Embodiment 94, (R,E)-N-(4-((4-([1,2,4]triazolo[4,3-c]pyrimidin-7-yloxy)-3-methylphenyl)amino)quinazolin-6-yl)-3-(1-methylpyrrolidin-2-yl)acrylamide]: 2.99 nM, 3.16 nM, 4.7 nM and 4.8 nM.
Taken in the same sequence, the figures for `Cc1cc(NC(=O)Nc2ccc3ncnc(Nc4ccc(Oc5cc6nncn6cn5)c(C)c4)c3c2)n[nH]1` [Embodiment 70, 1-(4-((4-([1,2,4]triazolo[4,3-c]pyrimidin-7-yloxy)-3-methylphenyl)amino)quinazolin-6-yl)-3-(5-methyl-1H-pyrazol-3-yl)urea] were 3.3 nM, 73.4 nM, 852 nM and 172 nM.
The matching figures for `Cc1cc(Nc2ncnc3ccc(-c4cccc(NC(=O)/C=C/CN(C)C)c4)cc23)ccc1Oc1cc2nncn2cn1` [Embodiment 76, (E)-N-(3-(4-((4-([1,2,4]triazolo[4,3-c]pyrimidin-7-yloxy)-3-methylphenyl)amino)quinazolin-6-yl)phenyl)-4-(dimethylamino)but-2-enamide]: 4.9 nM, 82.2 nM, 42.8 nM and 27.9 nM.
Regarding `Cc1cc(Nc2ncnc3ccc(-n4cccc4)cc23)ccc1Oc1cc2nncn2cn1` [Embodiment 83, N-(4-([1,2,4]triazolo[4,3-c]pyrimidin-7-yloxy)-3-methylphenyl)-6-(1H-pyrrol-1-yl)-quinazolin-4-amine], the IC50 stood at 2.3 nM at ErbB2 kinase, 36.4 nM at EGFR kinase, 104 nM with N87 and 72.7 nM in the assay with BT-474.
For `C=C(C)C(=O)Nc1ccc2ncnc(Nc3ccc(Oc4cc5nncn5cn4)c(C)c3)c2c1` [Embodiment 84, N-(4-((4-([1,2,4]triazolo[4,3-c]pyrimidin-7-yloxy)-3-methylphenyl)amino)quinazolin-6-yl)-methacrylamide], the IC50 at ErbB2 kinase amounted to 3 nM; at EGFR kinase it was 89.4 nM; in the assay with N87 it was 31.1 nM; in the assay on BT-474, 21.8 nM.
Taken in the same sequence, the figures for `C=CC(=O)Nc1ccc(-c2ccc3ncnc(Nc4ccc(Oc5cc6nncn6cn5)c(C)c4)c3c2)c(C)n1` [Embodiment 56, N-(5-(4-((4-([1,2,4]triazolo[4,3-c]pyrimidin-7-yloxy)-3-methylphenyl)amino)quinazolin-6-yl)-6-methylpyridin-2-yl)acrylamide] were 34 nM, 2450 nM, 466 nM and 35.4 nM.
Taken in the same sequence, the figures for `Cc1cc(Nc2ncnc3ccc(NC4=NC(C)(C)CO4)cc23)cc(C)c1Oc1cc2nncn2cn1` [Embodiment 126, N^4-(4-([1,2,4]triazolo[4,3-c]pyrimidin-7-yloxy)-3,5-dimethylphenyl)-N^6-(4,4-dimethyl-4,5-dihydrooxazol-2-yl)quinazolin-4,6-diamine] were 6.7 nM, 53 nM, 82.9 nM and 143 nM.
In the case of `Cc1cc(Nc2ncnc3ccc(NC4=NCC(C)(C)O4)cc23)ccc1Oc1cc2nncn2cn1` [Embodiment 90, N^4-(4-([1,2,4]triazolo[4,3-c]pyrimidin-7-yloxy)-3-methylphenyl)-N^6-(5,5-dimethyl-4,5-dihydrooxazol-2-yl)quinazolin-4,6-diamine], the IC50 on ErbB2 kinase was found to be 11.1 nM; on EGFR kinase it was 494 nM; in the assay on N87, 271 nM; with BT-474, 185 nM.
As for `Cc1cc(Nc2ncnc3ccc(NC4=NC5(CO4)CN(C)C5)cc23)ccc1Oc1cc2nncn2cn1` [Embodiment 30, N^4-(4-([1,2,4]triazolo[4,3-c]pyrimidin-7-yloxy)-3-methylphenyl)-N^6-(2-methyl-7-oxa-2,5-diazaspiro[3.4]oct-5-en-6-yl)quinazoline-4,6-diamine], the IC50 at ErbB2 kinase was found to be 4.9 nM; on EGFR kinase it was 17.3 nM; in the assay with N87, 771 nM; in the assay on BT-474 it was 141 nM.
Regarding `Cc1cc(Nc2ncnc3ccc(NC4=NCC(C)O4)cc23)ccc1Oc1cc2nncn2cn1` (stereo not shown) [Embodiment 24, N^4-(4-([1,2,4]triazolo[4,3-c]pyrimidin-7-yloxy)-3-methylphenyl)-N^6-(5-methyl-4,5-dihydrooxazol-2-yl)quinazoline-4,6-diamine], the IC50 on ErbB2 kinase was 4.1 nM; on EGFR kinase it was 127 nM; in the assay with N87, 177 nM; in the assay on BT-474, 128 nM.
With `Cc1cc(Nc2ncnc3ccc(NC4=NC5(CCC5)CO4)cc23)ccc1Oc1cc2nncn2cn1` [Embodiment 44, N^4-(4-([1,2,4]triazolo[4,3-c]pyrimidin-7-yloxy)-3-methylphenyl)-N^6-(7-oxa-5-azaspiro[3.4]oct-5-en-6-yl)quinazoline-4,6-diamine], the IC50 on ErbB2 kinase came to 1.43 nM; on EGFR kinase it was 11.6 nM; in the assay with N87, 46 nM; in the assay with BT-474, 41 nM.
Regarding `Cc1cc(Nc2ncnc3ccc(NC4=NC(C)(CO)CO4)cc23)ccc1Oc1cc2nncn2cn1` (stereo not shown) [Embodiment 13, (2-((4-((4-([1,2,4]triazolo[4,3-c]pyrimidin-7-yloxy)-3-methylphenyl)amino)quinazolin-6-yl)amino)-4-methyl-4,5-dihydrooxazol-4-yl)methanol], the IC50 on ErbB2 kinase is 2.6 nM; on EGFR kinase, 15.2 nM; with N87, 204 nM; in the assay with BT-474, 47.9 nM.
With `Cc1cc(Nc2ncnc3ccc(NC4=NC(C)(C)CO4)cc23)ccc1Oc1ccn2ncnc2c1` [drawing 219, reference compound], the IC50 came to 57.6 nM on EGFR kinase, 13.2 nM in the assay with N87 and 14.2 nM with BT-474.
